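Assay format: 96-well plates, 48-hour exposure. GI50: concentration for 50% inhibition of growth.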 Calls of active or inactive are those of the source. Cut-off read from the data, not from the text of the source: active = GI50 up to about 1.1 µM and inactive = higher. Where a SMILES comes first, the peptide text is derived from it.

The values below come from ChEMBL document CHEMBL1201862, “PubChem BioAssay data set” (2004).

Holding throughout (experiment): inhibition of tumour cell growth, NCI panel, 48 h
In assay [1] the test system is A549.
Assay [2] concerns BT-549.
Assay [3] relates to CAKI-1.
Assay [4] deals with HL-60.
In assay [5] the test system is HOP-92.
The subject of assay [6] is HT-29.
Assay [7] concerns KM12.
Assay [8] relates to MCF7.
Assay [9] has as its system Malme-3M.
Assay [10] relates to NCI-H226.
Assay [11] deals with NCI/ADR-RES.
The subject of assay [12] is OVCAR-3.
The test system of assay [13] is OVCAR-8.
Assay [14] has as its system RXF 393.
Assay [15] has as its system SF-295.
The test system of assay [16] is SK-MEL-5.
For assay [17], the system named is TK-10.
Assay [18] relates to HCC 2998.

Turning to `CC12CCC(=O)C=C1CCC1C2CCC2(C)C(C(=O)Cn3cnc4c(=S)nc[nH]c43)CCC12` (stereo not given), the GI50 in [1] is 48.1 µM (inactive); in assay [2], 28.4 µM (inactive); in assay [3] it was 34 µM (inactive); in [4], 33.3 µM (inactive); in assay [5] it was 10 µM (inactive); in [6] it was 33 µM (inactive). Besides, the GI50 was 37.9 µM (inactive) in [7]; 18.1 µM (inactive) in assay [8]; 40.5 µM (inactive) in assay [9]; 41.5 µM (inactive) in assay [10]; 62.4 µM (inactive) in assay [11]; 18.2 µM (inactive) in assay [12]. Also, the GI50 was 27.5 µM (inactive) in assay [13]; 17.6 µM (inactive) in [14]; 28.2 µM (inactive) in assay [15]; 30.6 µM (inactive) in assay [16]; 36 µM (inactive) in assay [17].

For `Cc1cc2nc3[nH]c4c(Cl)cc(Cl)cc4c3nc2cc1C`, the GI50 in assay [1] is > 100 µM (inactive); in [2], 98.4 µM (inactive); in assay [3], > 100 µM (inactive); in assay [4], > 100 µM (inactive); in [5] it was > 100 µM (inactive); in assay [6], > 100 µM (inactive). Besides, the GI50 in assay [7], in assay [8], in assay [9], in assay [10], in [11] and in assay [12] was > 100 µM (inactive) throughout. Further, the GI50 is > 100 µM (inactive) in [13]; 31.6 µM (inactive) in assay [14]; > 100 µM (inactive) in assay [15]; > 100 µM (inactive) in assay [16]; 17.3 µM (inactive) in [17].

On to `CC1=C(C(=O)NNC(=O)c2ccccc2O)CC(C(=O)NNC(=O)c2ccccc2O)=C(C)N1`, for which the GI50 in [1] is 0.48 µM (active); in [2] it was 0.446 µM (active); in assay [3], 0.993 µM (active); in [18] it was 13.7 µM (inactive); in assay [4], 0.512 µM (active); in [6], 7.93 µM (inactive). Moreover, the GI50 in assay [7] is 0.384 µM (active); in assay [8], 0.612 µM (active); in assay [9], > 100 µM (inactive); in assay [10], 1.79 µM (inactive); in assay [11], 0.448 µM (active); in assay [12], 1.55 µM (inactive). Moreover, the GI50 was 0.845 µM (active) in assay [13], 0.535 µM (active) in [15], 2.06 µM (inactive) in assay [16] and > 47.3 µM (inactive) in assay [17].

`CCCCNC(=S)N/N=C/c1cccc(C)n1`: the GI50 is 32.4 µM (inactive) in [1]; 49.4 µM (inactive) in assay [2]; 33.9 µM (inactive) in assay [3]; 23.2 µM (inactive) in assay [4]; 24.2 µM (inactive) in [5]; > 10 µM (inactive) in [6]. The GI50 in assay [7] is 31.3 µM (inactive); in assay [8] it was 37.8 µM (inactive); in assay [9] it was 52.2 µM (inactive); in [10], 27.8 µM (inactive); in assay [11], 29 µM (inactive); in assay [12], > 100 µM (inactive). Moreover, the GI50 in assay [13] was 33.5 µM (inactive); in assay [15], 33.2 µM (inactive); in assay [16], 43 µM (inactive); in assay [17], 29.7 µM (inactive).

Regarding `NNc1nncc2[nH]cnc12`, the GI50 was > 100 µM (inactive) in [1]; > 100 µM (inactive) in [2]; > 100 µM (inactive) in [3]; 35.8 µM (inactive) in assay [4]; > 100 µM (inactive) in [6]; > 100 µM (inactive) in assay [7]. Further, the GI50 in assay [8], in [10], in [11], in assay [12], in assay [13] and in assay [14] was > 100 µM (inactive) each time. For the same compound, the GI50 in assay [15], in assay [16] and in assay [17] was > 100 µM (inactive) throughout.

On to `O=c1[nH]n(Cc2ccccc2CCl)c2ccc([N+](=O)[O-])cc12`, for which the GI50 is 31.2 µM (inactive) in [1]; 25 µM (inactive) in [3]; 21.7 µM (inactive) in assay [18]; 26.6 µM (inactive) in assay [4]; 34.5 µM (inactive) in [5]; 34.8 µM (inactive) in [6]. Also, the GI50 in assay [7] is 49.5 µM (inactive); in assay [8], 29.8 µM (inactive); in [9], 83.4 µM (inactive); in assay [10], 93.5 µM (inactive); in [11] it was 29.9 µM (inactive); in [12], 48.2 µM (inactive). The GI50 in [13] is 40.5 µM (inactive); in assay [14] it was 32.9 µM (inactive); in assay [15], 37.8 µM (inactive); in [16], 13.4 µM (inactive); in assay [17] it was 54.3 µM (inactive).

On to `Cc1c(Br)c(Br)c(C)[s+]1[O-]`, for which the GI50 in assay [1] is 15.6 µM (inactive); in assay [2] it was 16.3 µM (inactive); in assay [3] it was 13.7 µM (inactive); in assay [18] it was 18.4 µM (inactive); in [4], 3.2 µM (inactive); in assay [5], 45.9 µM (inactive). Besides, the GI50 is 15.4 µM (inactive) in [6]; 13.8 µM (inactive) in assay [7]; 25 µM (inactive) in assay [8]; 17.3 µM (inactive) in [9]; 28.4 µM (inactive) in [10]; 29 µM (inactive) in assay [11]. Further, the GI50 is 5.92 µM (inactive) in assay [12]; 21.6 µM (inactive) in [13]; 20 µM (inactive) in assay [15]; 10.4 µM (inactive) in assay [16]; 21.2 µM (inactive) in assay [17].

On to `C[C@@H]1CC[C@@H]2[C@@H](C1)O[C@@H]([C@H](C)OCc1ccccc1)SC2(C)C`, for which the GI50 in [1] is 26.3 µM (inactive); in assay [2] it was 39.4 µM (inactive); in assay [3], 34.8 µM (inactive); in [18], 17.9 µM (inactive); in [6] it was 36 µM (inactive); in assay [7], 18.5 µM (inactive). The GI50 in [8] is 16.9 µM (inactive); in assay [9] it was 22.6 µM (inactive); in [10] it was 18.4 µM (inactive); in assay [11], 25.5 µM (inactive); in assay [13], 31.5 µM (inactive); in assay [14], 17.6 µM (inactive). Also, the GI50 in assay [15] was 17.5 µM (inactive); in assay [16], 18.1 µM (inactive); in assay [17], 32.1 µM (inactive).

With `O=C1NC(=S)NC(=O)C1C(c1ccc(O)cc1)C1C(=O)NC(=S)NC1=O.c1ccncc1`, the GI50 in assay [1], in [2], in [3], in assay [4], in [5] and in assay [6] was > 100 µM (inactive) each time. The GI50 in assay [7], in assay [8], in [9], in assay [10], in [11] and in [12] was > 100 µM (inactive) each time. The GI50 in [13], in assay [14], in [15], in assay [16] and in assay [17] was > 100 µM (inactive) each time.

Consider `O=C1c2ccccc2-c2c1c1ccccc1c(=O)n2Cc1ccccc1`, for which the GI50 was > 100 µM (inactive) in [1]; 62.7 µM (inactive) in assay [2]; 56.8 µM (inactive) in assay [3]; > 100 µM (inactive) in assay [4]; 63.1 µM (inactive) in assay [5]; > 100 µM (inactive) in assay [6]. For the same compound, the GI50 in [7], in assay [8], in [9], in assay [10], in assay [11] and in assay [12] was > 100 µM (inactive) each time. For the same compound, the GI50 in assay [13] was > 100 µM (inactive); in [15] it was 93.1 µM (inactive); in assay [16], 73.6 µM (inactive); in assay [17] it was 40.7 µM (inactive).

Consider `C/C(CC(O)(/C=N/O)c1ccccc1)=N/O` (stereo not given), for which the GI50 in [1], in assay [2], in assay [3], in [18], in assay [6] and in assay [7] was > 100 µM (inactive) each time. The GI50 in assay [8] was > 100 µM (inactive); in [9], > 100 µM (inactive); in assay [10] it was > 100 µM (inactive); in [11], 99.8 µM (inactive); in assay [12] it was > 100 µM (inactive); in assay [13] it was > 100 µM (inactive). The GI50 in assay [15], in assay [16] and in assay [17] was > 100 µM (inactive) in each case.

As to `CC(=O)NC(CS)C(=O)NC(CO)C(=O)NC(CO)C(=O)NC(Cc1c[nH]c2ccccc12)C(=O)N1CCCC1C(=O)NC(CO)C(=O)NC(Cc1c[nH]c2ccccc12)C(=O)NC(Cc1c[nH]cn1)C(=O)NC(CO)C(=O)NC(Cc1c[nH]c2ccccc12)C(=O)NCC(=O)NCC(=O)NC(CC(=O)O)C(=O)NC(CCC(N)=O)C(=O)NC(CCCCN)C(=O)NC(Cc1ccccc1)C(=O)NC(CCCNC(=N)N)C(=O)NC(CCCCN)C(N)=O` (stereo not given) (Ac-CSSWPSWHSWGGDQKFRK-NH2; configuration not given here), the GI50 in assay [1], in assay [2], in [3], in [4], in [5] and in assay [6] was > 25 µM (inactive) throughout. In addition, the GI50 in [7], in assay [8], in assay [9], in assay [10], in assay [11] and in assay [12] was > 25 µM (inactive) throughout. Moreover, the GI50 in [13], in assay [14], in assay [15], in assay [16] and in assay [17] was > 25 µM (inactive) in each case.
